2 compounds from patent publication US11021441B2, “High solubility thioether quinones” (Wisconsin Alumni Research Foundation, priority 2017, dated 2021) can be followed below.

A short description of this series: Redox couple / cyclic voltammetry in aqueous 1 M H2SO4. In kind it is physicochemical. As to the method: More preferably, a solution of mercaptoethanesulfonate is allowed to react with a suspension of benzoquinone in water (Scheme 16). 0.655 g of sodium mercaptoethanesulfonate in 10 ml of water with 60 microliters of acetic acid was treated with 0.438 g of benzoquinone and allowed to stir at room temperature for 45 minutes. The resulting mixture was filtered and the filtrate was extracted with three 5 ml portions of ethyl acetate. The aqueous phase was then diluted with 30 ml of ethanol and heated to clarify it. On cooling, crystals formed that gave ^1H and ^13C NMR spectra in D2O in accord with tetra-thioethylsulfonato hydroquinone, 52 (FIGS. 5A and 5B).
To 3.956 g of sodium 3-mercaptopropanesulfonate dispersed in 50 mL of nitrogen-purged N-methyl pyrrolidinone were added 10.5 mL of 2 M aqueous NaOH. Once mixed, 2.766 g of 1,8-dichloroanthraquinone were added (Scheme 28). The suspension was heated under nitrogen to 90° C. for six days then allowed to cool. 50 mL of water containing 1 mL of acetic acid was added to the cooled solution, which was further diluted with 25 mL water. The solution was extracted with four 50 mL portions of methylene chloride, and the aqueous phase was evaporated. The residue was dissolved with 35 mL of water and 60 mL of methanol was added. The mixture was heated until clear, and left to slowly cool. […]

For the compound `O=C1c2cccc(SCCCS(=O)(=O)[O-])c2C(=O)c2c(SCCCS(=O)(=O)[O-])cccc21.[Na+].[Na+]` [Compound 109], under “cyclic voltammetry in 1 M H2SO4”, the reduction potential entry is “approximately 85 mV vs. NHE”.
For the setting “aqueous 1 M H2SO4”, `O=S(=O)([O-])CCSc1c(O)c(SCCS(=O)(=O)[O-])c(SCCS(=O)(=O)[O-])c(O)c1SCCS(=O)(=O)[O-].[Na+].[Na+].[Na+].[Na+]` [Compound 52, 2,3,5,6-tetrakis(ethylsulfanyl-2′-sulfonate)-1,4-hydroquinone tetrasodium salt] showed a reversible redox couple of 0.63 V vs. NHE.
